Several values for one entry are separate records, joined by “and”; a condition that tells them apart may be missing. Equal entries are not always repeated.

The test system of assay [1] is C. acnes ATCC 6919. The assay is described as follows: Co-culture assay: C. acnes growth with S. epidermidis biofilm in aerobic condition. The following applies: monitored 24, 48 and 72 hours, FIG. 8. The class given is cell-based, Cutibacterium acnes. How it is done: S. epidermidis ATCC 12228, and C. acnes ATCC 6919 were purchased from ATCC. C. acnes and S. epidermidis were cultured in modified brain heart infusion (MBHI) medium (pH 7), containing 37 g of BHI base (Accumedia 7116B), 0.4% (v/v) of Tween-40 (Sigma P1504), 0.2% (v/v) of Oleic acid (Fluka 75096), and 0.2% (v/v) of Glycerol (Promega H5433) in 1 liter of dH2O. S. epidermidis was routinely grown under aerobic conditions, shaken at 200 rpm, and C. acnes was grown under anaerobic conditions. All organisms were grown at 33° C. Wherever required, media was supplemented with: sodium propionate ([…], Sigma Ref. P1880),
C. acnes and S. epidermidis were inoculated in MBHI media at starting cell density of OD600 0.05 and 0.25 respectively. Bacterial growth was measured by plating the serially diluted cultures on Brain Heart Infusion agar plates at different time points and colonies were counted after 72 hours for C. acnes and 24 hours for S. epidermidis.
For co-cultures, equal volumes of exponentially growing cells of the two species were mixed at cell density of 10^5 cells per ml in 24-well glass bottom plates. Growth of each species in co-cultures was quantified by plating the culture suspension on agar medium. […]

In assay [2] the test system is C. acnes ATCC 6919. The assay is described as follows: C. acnes growth assay, colony forming units. The class given is cell-based, Cutibacterium acnes. How it is done:
(§1) M. restricta ATCC MYA-4611, S. epidermidis ATCC 12228, and C. acnes ATCC 6919 were purchased from ATCC. M. restricta was routinely cultured in modified Dixon (MD) medium (pH 6), composed of 36 g of Malt extract (Sigma 70167), 20 g of Dessicated Oxbile (Sigma 70168), 6 g of Bacto™ Peptone (BD 211677), 1% (v/v) Tween 40 (Sigma P1504), 0.2% (v/v) Oleic Acid (Fluka 75096), and 0.2% (v/v) Glycerol (Promega H5433) in 1 liter of dH2O. C. acnes and S. epidermidis were cultured in modified brain heart infusion (MBHI) medium (pH 7), containing 37 g of BHI base (Accumedia 7116B), 0.4% (v/v) of Tween-40 (Sigma P1504), 0.2% (v/v) of Oleic acid (Fluka 75096), and 0.2% (v/v) of Glycerol (Promega H5433) in 1 liter of dH2O. M. restricta and S. epidermidis were routinely grown under aerobic conditions, shaken at 200 rpm, and C. acnes was grown under anaerobic conditions. All organisms were grown at 33° C. Wherever required, media was supplemented with: sodium acetate (CH3COOH, Sigma Ref. 32319), sodium propionate ([…], Sigma Ref. P1880), sodium butyrate (CH3(CH2)2COOH, Sigma Ref. 303410), valeric acid (CH3(CH2)3COOH, Fluka Ref. 75054). For valeric acid, the pH in modified cell media was neutralized with NaOH (Sodium hydroxide, Sigma 283060).
(§2) M. restricta cells stored as glycerol stocks (30% glycerol in MD medium) were revived by plating on MD agar plates and incubated for 2-3 days at 33° C. A pre-culture was made from the lawn of cells grown on the agar plate. Cells from % of the plate was scrapped off, homogenized after suspending in 70 ml of MD medium in a 250 ml baffled erlenmeyer flask and incubated for 24 hours at 33° C. at 200 rpm. For experiments, 10^7 cell/ml was inoculated in fresh MD medium with or without the short chain fatty acids. Growth was monitored by measuring the cell density with SYTO 9 for up to 24 hours or 96 hours. C. acnes and S. epidermidis were inoculated into MBHI medium at starting cell density of OD600 0.05 and 0.25, respectively. Bacterial growth was measured by plating the serially diluted cultures on Brain Heart Infusion agar plates at different time points and colonies were counted after 72 hours for C. acnes and 24 hours for S. epidermidis.
(§3) Bacterial growth was quantified by plating the serially diluted cultures on Brain Heart Infusion agar plates at different time points and colonies were counted after 72 hours for C. acnes and 24 hours for Staphylococcus sp.
(§4) M. restricta ATCC MYA-4611, S. epidermidis ATCC 12228 and C. acnes ATCC 6919 were purchased from ATCC. M. restricta were routinely cultured in Modified Dixon (MD) medium (pH 6), composed of 36 g of Malt extract (Sigma 70167), 20 g of Dessicated Oxbile (Sigma 70168), 6 g of Bacto™ Peptone (BD 211677), 1% (v/v) Tween 40 (Sigma P1504), 0.2% (v/v) Oleic Acid (Fluka 75096), and 0.2% (v/v) Glycerol (Promega H5433) in 1 liter of dH2O. C. acnes and S. epidermidis were cultured in modified brain heart infusion (MBHI) medium (pH 7), containing 37 g of BHI base (Accumedia 7116B), 0.4% (v/v) of Tween-40 (Sigma P1504), 0.2% (v/v) of Oleic acid (Fluka 75096), and 0.2% (v/v) of Glycerol (Promega H5433) in 1 liter of dH2O. M. restricta and S. epidermidis were routinely grown under aerobic conditions, shaken at 200 rpm, and C. acnes was grown under anaerobic conditions. All organisms were grown at 33° C. Wherever required, media was supplemented with 50 mM of: sodium propionate (CH3CH2COOH, Sigma Ref. P1880), sodium butyrate (CH3(CH2)2COOH, Sigma Ref. 303410), valeric acid (CH3(CH2)3COOH, Fluka Ref. 75054). For valeric acid, the pH in modified cell media was neutralized with NaOH (Sodium hydroxide, Sigma 283060).
(§5) M. restricta cells stored as glycerol stocks (30% glycerol in MD medium) were revived by plating on MD agar plates and incubated for 2-3 days at 33° C. A pre-culture was made from the lawn of cells grown on the agar plate.

The test system of assay [3] is S. epidermidis ATCC 12228. The assay is described as follows: S. epidermidis growth assay, colony forming units. In kind it is cell-based, Staphylococcus epidermidis. How it is done:
as §1, §2, §3, §4, §5

Assay [4] concerns M. restricta ATCC MYA-4611. The assay is described as follows: M. restricta growth assay, total cell numbers by SYTO9 fluorescence. In kind it is cell-based, Malassezia restricta. How it is done: as §1
M. restricta cells from 1 ml of the culture were harvested by centrifugation at 10,000×g for 5 minutes at room temperature. Cells were washed once, pelleted, and re-suspended in 0.9% NaCl solution. Equal volumes of the above cell suspension and SYTO 9 working stock (3 ul SYTO 9 component of the Live/Dead BacLight bacterial viability kit, ThermoFisher Scientific, L7012, diluted in 1 ml of 0.9% NaCl solution) were mixed well, incubated in dark for 10 minutes, and fluorescent intensity unit was measured in a Tecan microplate reader with excitation/emission wavelengths of 485/530 nm. A standard for correlation of fluorescence units and concentration was prepared using a fluorimeter and hemocytometer under a light microscope. This standard curve was used to calculate the total cell numbers.
as §2
as §4, with “C.” for “C. Wherever required, media was supplemented with 50 mM of: sodium propionate (CH3CH2COOH, Sigma Ref. P1880), sodium butyrate (CH3(CH2)2COOH, Sigma Ref. 303410), valeric acid (CH3(CH2)3COOH, Fluka Ref. 75054). For valeric acid, the pH in modified cell media was neutralized with NaOH (Sodium hydroxide, Sigma 283060).”

For the compound `CCC(=O)[O-].[Na+]` [NaP, sodium propionate], the “C. acnes growth in co-culture with S. epidermidis” value in assay [1] is on record as “augmented”. For the same compound, the “growth of C. acnes” value in assay [2] (30 mM, MBHI medium pH 7, anaerobic, FIG. 2) is “do not affect”. Besides, the “C. acnes (log10 CFUs/ml)” value in assay [2] (50 mM, after 72 hours, replicates #1-#3) was 7.82 log10 CFUs/ml and 8.34 log10 CFUs/ml and 8.29 log10 CFUs/ml. Also, in assay [3] (30 mM, MBHI medium pH 7, aerobic, FIG. 3), the “growth of S. epidermidis” value is “do not affect”. In addition, the “S. epidermidis (log10 CFUs/ml)” value in assay [3] (50 mM, after 24 hours, replicates #1-#3) is 9.16 log10 CFUs/ml and 8.82 log10 CFUs/ml and 9.00 log10 CFUs/ml. Further, the “growth of Malassezia restricta” value in assay [4] (30 mM, MD medium pH 6, FIG. 1) was “completely inhibit”. Besides, the “M. restricta (log10 total cell counts)” value in assay [4] (50 mM, after 72 hours, SYTO9, starting density 1×10^7 cells/ml, replicates #1-#3) was 6.95 log10 total cell counts and 6.79 log10 total cell counts and 6.82 log10 total cell counts.

Source of the values: patent US20240082125A1, “USE OF A SHORT CHAIN FATTY ACID AS ANTIDANDRUFF AGENT” (NANYANG TECHNOLOGICAL UNIVERSITY, priority 2020, published 2024).
